“And” between values parts separate entries of the source, which are not always exact repeats. Equal values may be shown once. Read-outs that look alike come from different tables or passages of the source.
Experiments:
[1] = test system: SARS-CoV-2; test: microbe, parasite or virus in culture; type: cell-based; settings: for %infected: Calu-3, replicates n=1, n=2
[2] = test system: HeLa-ACE2 cells; test: Total cell count in the HeLa-ACE2 TOA assay; type: cell-based; settings: Homo sapiens
Text: Supplement 41467_2021_23328_MOESM3_ESM.xlsx, sheet "Table S1" | column: HeLa-ACE2 TOA cell count

[3] = test system: SARS-CoV-2; test: microbe, parasite or virus in culture; type: cell-based; settings: for TOA: HeLa-ACE2, replicates n=1
[4] = test system: Calu-3 cells
[5] = cited from earlier work
[6] = in vitro; settings: human
[7] = Uninfected HeLa-ACE2 24 h live/dead cytotoxicity counter screen; type: cell-based, human; settings: human, uninfected HeLa-ACE2 cells, reconfirmed hits; read-out: HeLa-ACE2 Uninf. cells CC50
[8] = test system: HeLa-ACE2 cells; test: as above; type: cell-based, human; settings: for cytotox: HeLa-ACE2
[9] = test system: SARS-CoV-2; test: microbe, parasite or virus in culture; type: cell-based; settings: for %infected: HeLa-ACE2, replicates n=1, n=2
[10] = test system: HeLa-ACE2 cells; test: cells; settings: Homo sapiens, HeLa-ACE2, read-out: HeLa-ACE2 cell count EC50 GeoMean
[11] = test system: Calu-3 cells; test: cells; settings: Homo sapiens
[12] = test system: SARS-CoV-2; type: cell-based; settings: 72 hpi

SMILES: O=c1nc(NO)ccn1[C@@H]1O[C@H](CO)[C@@H](O)[C@H]1O [N-hydroxycytidine]
- %infected ([1]; concentration log[M] -5.00096): -104.882% and -104.039% and -104.073% and -87.0522% and -95.3104% and -95.1991%
- %infected ([1]; concentration log[M] -5.47808): -102.424% and -94.8216% and -96.2613% and -79.6455% and -88.2245% and -78.3438%
- %infected ([1]; concentration log[M] -6.08014): -48.1883% and -55.6504% and -62.6482% and -43.1506% and -54.549% and -44.7088%
- %infected ([1]; concentration log[M] -6.42922): -25.3967% and -10.7735% and -12.1745% and -21.3919% and -25.2933% and -26.102%
- %infected ([1]; concentration log[M] -6.90623): 2.702% and -5.189% and -14.5454% and -5.7089% and 20.5633% and -23.5818%
- %infected ([1]; concentration log[M] -7.50836): 7.0582% and -3.1% and 10.044% and -11.1778% and -10.264% and 16.3735%
- %infected ([1]; concentration log[M] -7.85886): -6.015% and 34.2889% and -1.001% and -2.481% and -24.9588% and 14.4808%
- %infected ([1]; concentration log[M] -8.33602): 34.4513% and -7.593% and -0.3699% and -1.01% and 8.564% and 15.1555%
- Emax ([1]; Severe acute respiratory syndrome coronavirus 2, Calu-3, 48 h, curve plateau at infinite concentration, read-out: Calu-3 CoV-2 Sinf Average): 102%
- EC50 ([1]; Severe acute respiratory syndrome coronavirus 2, Calu-3, reconfirmed hits, read-out: Calu-3 SARS-CoV-2 EC50): 0.803 µM
- Emax ([2]; HeLa-ACE2, 10 h, read-out: HeLa-ACE2 TOA cell count Sinf Average): 100%
- EC50 ([2]; HeLa-ACE2, read-out: HeLa-ACE2 TOA cell count EC50 GeoMean): > 9.59 µM
- TOA ([3]; concentration log[M] -5.01818): -88.6412 and -82.7703 and -80.6006
- TOA ([3]; concentration log[M] -5.54106): -32.1719 and -27.0134 and -25.6358
- TOA ([3]; concentration log[M] -6.01818): -19.1217 and -14.6661 and -4.943
- TOA ([3]; concentration log[M] -6.42366): 4.0678 and -1.902 and 3.9754
- TOA ([3]; concentration log[M] -6.90066): 9.161 and 4.654 and 6.517
- TOA ([3]; concentration log[M] -7.37799): 8.185 and 12.3603 and -5.097
- TOA ([3]; concentration log[M] -7.85511): -1.637 and 10.875 and -15.0843
- TOA ([3]; concentration log[M] -8.34746): 4.125 and 6.481 and 1.9398
- Emax ([3]; Severe acute respiratory syndrome coronavirus 2, HeLa-ACE2, 10 h, curve plateau at infinite concentration, read-out: HeLa-ACE2 TOA CoV-2 Sinf Average): 100%
- EC50 ([3]; Severe acute respiratory syndrome coronavirus 2, HeLa-ACE2, read-out: HeLa-ACE2 TOA CoV-2 EC50 GeoMean): 4.06 µM
- uninfected Calu-3 CC50 [4]: 29.85 ×÷ 1 (n=2) μM
- Calu-3 uninfected cytotoxicity Sinf Average ([4]; human, 48 h): -100%
- Approx. t1/2 ([5]; NHP, ref [45]): 1 h
- Cmax ([5]; in vivo, po): 3.3 µM
- CC50 at 48 h ([6]; Calu-3 Uninf. cells CC50 (µM)): > 29.9 µM
- CC50 at 48 h ([6]; Calu-3 uninfected cytotoxicity CC50 GeoMean): 29.9 µM
- CC50 at 24 h [7]: > 37.5 µM
- cytotox ([8]; concentration log[M] -4.40012, replicates n=1, n=2): -52.5894 and -47.3606 and -59.8571 and -45.9651 and -54.0657 and -40.7828
- cytotox ([8]; concentration log[M] -4.82681, replicates n=1, n=2): -38.4391 and -39.4796 and -38.1429 and -39.2039 and -43.0802 and -30.2326
- cytotox ([8]; concentration log[M] -5.30277, replicates n=1, n=2): -30.8534 and -12.119 and -16 and -17.6118 and -29.9408 and -19.0017
- cytotox ([8]; concentration log[M] -5.82681, replicates n=1, n=2): -4.449 and -6.9145 and -4 and -19.1385 and -7.754 and 0.2836
- cytotox ([8]; concentration log[M] -6.25414, replicates n=1, n=2): -16.849 and -13.6059 and -16.5714 and -13.1407 and -8.078 and -16.506
- cytotox ([8]; concentration log[M] -6.73049, replicates n=1, n=2): -10.2845 and 8.996 and -3.286 and -2.1265 and -9.908 and -9.472
- cytotox ([8]; concentration log[M] -7.25727, replicates n=1, n=2): 1.386 and -4.089 and -25.4286 and -12.8135 and -14.6473 and -10.7204
- cytotox ([8]; concentration log[M] -7.68403, replicates n=1, n=2): -8.534 and -5.279 and -6.286 and -2.672 and -11.8471 and 1.418
- cytotox ([8]; concentration log[M] -8.16052, replicates n=1, n=2): -5.325 and 4.535 and -3.571 and -9.869 and -22.4017 and -12.0817
- cytotox ([8]; concentration log[M] -8.59517, replicates): -2.261 and -3.197 and -3.429 and -6.707 and -1.077 and -11.9682
- HeLa-ACE2 uninfected cytotoxicity Sinf Average ([8]; curve plateau at infinite concentration): -100%
- %infected ([9]; concentration log[M] -5.01818): -95.9068% and -95.703% and -94.602% and -97.3369% and -96.6026% and -97.2941%
- %infected ([9]; concentration log[M] -5.54106): -65.3775% and -59.3515% and -63.9298% and -52.8807% and -12.9328% and -65.202%
- %infected ([9]; concentration log[M] -6.01818): -30.1084% and -28.1968% and -26.2247% and 6.562% and 13.7937% and -28.207%
- %infected ([9]; concentration log[M] -6.42366): -20.845% and -20.4031% and 6.3056% and 22.7531% and 23.3232% and -10.0334%
- %infected ([9]; concentration log[M] -6.90066): -9.321% and -9.37% and 63.7122% and 19.7824% and -5.072% and -8.1%
- %infected ([9]; concentration log[M] -7.37799): -5.474% and -4.047% and 10.6164% and 29.7413% and 17.9839% and -7.442%
- %infected ([9]; concentration log[M] -7.85511): -5.151% and -0.8478% and 5.043% and 11.903% and -2.081% and 8.512%
- %infected ([9]; concentration log[M] -8.34746): 2.419% and 1.409% and -2.874% and 18.1053% and 10.6681% and -1.579%
- Emax ([9]; Severe acute respiratory syndrome coronavirus 2, HeLa-ACE2, 24 h, curve plateau at infinite concentration, read-out: HeLa-ACE2 CoV-2 Sinf Average): 100%
- EC50 ([9]; Severe acute respiratory syndrome coronavirus 2, HeLa-ACE2, reconfirmed hits, read-out: HeLa-ACE2 SARS-CoV-2 EC50): 2.07 µM
- EC50 [10]: > 9.59 µM
- Emax ([11]; Calu-3, 48 h, read-out: Calu-3 cell count Sinf Average): 100%
- EC50 ([11]; Calu-3, read-out: Calu-3 cell count EC50 GeoMean): 2.3 µM
- reduction in apical viral loads [12]: > 1 log
